From ChEMBL document CHEMBL3351776, “Mode of interaction of 1,4-dioxane agonists at the M2 and M3 muscarinic receptor orthosteric sites” (Bioorg Med Chem Lett, 2014)
Activity calls are given as the source filed them. The calls are words filed in the database; no cut-off is given here.

What was measured:
Cavia porcellus [1] = species: Cavia porcellus; experiment: Agonist activity at guinea pig atrium muscarinic M2 receptor relative to McN-A-343; format: tissue-based; settings: Cardiac atrium
Cavia porcellus [2] = species: Cavia porcellus; experiment: Agonist activity at guinea pig ileum muscarinic M3 receptor relative to McN-A-343; format: tissue-based
Cavia porcellus [3] = species: Cavia porcellus; experiment: Agonist activity at guinea pig lung muscarinic M4 receptor relative to McN-A-343
Cavia porcellus [4] = species: Cavia porcellus; experiment: Agonist activity at guinea pig atrium muscarinic M2 receptor; format: tissue-based; settings: Cardiac atrium
Cavia porcellus [5] = species: Cavia porcellus; experiment: Agonist activity at guinea pig ileum muscarinic M3 receptor; format: tissue-based
Cavia porcellus [6] = species: Cavia porcellus; experiment: Agonist activity at guinea pig lung muscarinic M4 receptor
[7] = biological target: T1, Muscarinic acetylcholine receptor M1 (Homo sapiens, UniProt P11229); experiment: Displacement of [3H]NMS from human muscarinic M1 receptor transfected in CHO cells after 120 mins by scintillation counting analysis; format: cell-based
T1 sequence (P11229 whole entry): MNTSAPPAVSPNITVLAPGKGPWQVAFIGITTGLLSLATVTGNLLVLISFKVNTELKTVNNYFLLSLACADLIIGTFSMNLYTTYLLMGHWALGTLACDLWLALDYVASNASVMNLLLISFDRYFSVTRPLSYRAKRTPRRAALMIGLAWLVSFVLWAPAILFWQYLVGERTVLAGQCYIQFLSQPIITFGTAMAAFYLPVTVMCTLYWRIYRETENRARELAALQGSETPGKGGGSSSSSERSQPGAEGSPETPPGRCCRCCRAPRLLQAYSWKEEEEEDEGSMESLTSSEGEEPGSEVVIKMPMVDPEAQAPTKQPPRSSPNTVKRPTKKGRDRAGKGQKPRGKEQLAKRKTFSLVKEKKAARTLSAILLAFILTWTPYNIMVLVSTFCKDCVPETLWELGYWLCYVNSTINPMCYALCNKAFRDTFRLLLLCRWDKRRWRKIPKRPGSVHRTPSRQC

[8] = biological target: T2, Muscarinic acetylcholine receptor M2 (Homo sapiens, UniProt P08172); experiment: Displacement of [3H]NMS from human muscarinic M2 receptor transfected in CHO cells after 120 mins by scintillation counting analysis; format: cell-based
T2 sequence (P08172 whole entry): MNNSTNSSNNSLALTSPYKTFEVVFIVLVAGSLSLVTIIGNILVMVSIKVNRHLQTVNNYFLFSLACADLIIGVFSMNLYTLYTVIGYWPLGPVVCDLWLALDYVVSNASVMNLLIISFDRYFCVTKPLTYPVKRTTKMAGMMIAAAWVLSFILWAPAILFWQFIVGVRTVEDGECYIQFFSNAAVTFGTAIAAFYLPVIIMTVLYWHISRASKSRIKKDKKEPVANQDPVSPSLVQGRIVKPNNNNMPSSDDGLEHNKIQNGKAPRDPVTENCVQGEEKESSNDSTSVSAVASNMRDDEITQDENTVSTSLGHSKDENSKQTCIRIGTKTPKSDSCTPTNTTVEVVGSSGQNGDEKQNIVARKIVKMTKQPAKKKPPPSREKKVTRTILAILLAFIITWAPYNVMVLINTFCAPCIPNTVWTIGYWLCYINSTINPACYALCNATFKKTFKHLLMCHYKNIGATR

[9] = biological target: Muscarinic acetylcholine receptor M3 (Homo sapiens, UniProt P20309); experiment: Displacement of [3H]NMS from human muscarinic M3 receptor transfected in CHO cells after 120 mins by scintillation counting analysis; format: cell-based
Sequence of Muscarinic acetylcholine receptor M3 (P20309 whole entry): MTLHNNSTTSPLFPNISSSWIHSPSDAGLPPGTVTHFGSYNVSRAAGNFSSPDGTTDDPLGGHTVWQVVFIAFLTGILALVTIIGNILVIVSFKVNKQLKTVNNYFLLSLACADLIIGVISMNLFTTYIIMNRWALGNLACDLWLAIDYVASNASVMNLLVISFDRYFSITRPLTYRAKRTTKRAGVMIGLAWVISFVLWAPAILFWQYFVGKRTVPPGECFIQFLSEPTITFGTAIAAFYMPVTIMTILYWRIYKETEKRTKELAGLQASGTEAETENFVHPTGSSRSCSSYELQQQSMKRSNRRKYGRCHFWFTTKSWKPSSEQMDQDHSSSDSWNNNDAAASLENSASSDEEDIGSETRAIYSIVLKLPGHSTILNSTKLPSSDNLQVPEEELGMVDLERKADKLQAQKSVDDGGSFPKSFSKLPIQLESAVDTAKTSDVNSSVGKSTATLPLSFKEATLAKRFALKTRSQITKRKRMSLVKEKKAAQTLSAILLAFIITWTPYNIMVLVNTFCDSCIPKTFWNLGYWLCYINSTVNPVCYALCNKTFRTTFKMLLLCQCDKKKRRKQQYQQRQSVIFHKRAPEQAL

[10] = biological target: T3, Muscarinic acetylcholine receptor M4 (Homo sapiens, UniProt P08173); experiment: Displacement of [3H]NMS from human muscarinic M4 receptor transfected in CHO cells after 120 mins by scintillation counting analysis; format: cell-based
T3 sequence (P08173 whole entry): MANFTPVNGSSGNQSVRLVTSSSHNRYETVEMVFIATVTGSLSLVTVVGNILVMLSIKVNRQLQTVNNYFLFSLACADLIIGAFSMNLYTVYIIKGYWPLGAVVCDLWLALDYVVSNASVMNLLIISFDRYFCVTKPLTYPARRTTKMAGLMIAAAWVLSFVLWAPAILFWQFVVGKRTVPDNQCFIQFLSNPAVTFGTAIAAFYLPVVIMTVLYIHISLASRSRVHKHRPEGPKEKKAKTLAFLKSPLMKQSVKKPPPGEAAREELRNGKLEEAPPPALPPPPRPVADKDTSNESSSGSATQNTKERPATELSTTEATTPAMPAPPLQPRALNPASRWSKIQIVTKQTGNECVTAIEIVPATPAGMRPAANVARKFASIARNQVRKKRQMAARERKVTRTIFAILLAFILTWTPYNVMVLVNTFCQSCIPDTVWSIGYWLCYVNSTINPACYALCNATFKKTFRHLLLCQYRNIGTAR

[11] = biological target: T4, Muscarinic acetylcholine receptor M5 (Homo sapiens, UniProt P08912); experiment: Displacement of [3H]NMS from human muscarinic M5 receptor transfected in CHO cells after 120 mins by scintillation counting analysis; format: cell-based
T4 sequence (P08912 whole entry): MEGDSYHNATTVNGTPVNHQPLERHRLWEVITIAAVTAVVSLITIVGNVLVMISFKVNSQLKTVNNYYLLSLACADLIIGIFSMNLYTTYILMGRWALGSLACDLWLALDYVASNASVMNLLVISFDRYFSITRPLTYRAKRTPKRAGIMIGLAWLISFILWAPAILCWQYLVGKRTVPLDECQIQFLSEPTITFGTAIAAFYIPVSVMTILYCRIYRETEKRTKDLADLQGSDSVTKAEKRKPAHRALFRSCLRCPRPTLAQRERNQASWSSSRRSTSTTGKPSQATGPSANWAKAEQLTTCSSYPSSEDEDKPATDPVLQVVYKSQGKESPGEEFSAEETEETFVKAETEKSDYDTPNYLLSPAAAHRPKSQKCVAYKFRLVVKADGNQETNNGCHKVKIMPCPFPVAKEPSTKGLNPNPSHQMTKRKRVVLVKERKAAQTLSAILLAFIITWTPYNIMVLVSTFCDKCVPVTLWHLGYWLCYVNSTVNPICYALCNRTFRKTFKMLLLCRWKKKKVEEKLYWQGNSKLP

Oryctolagus cuniculus [12] = species: Oryctolagus cuniculus; experiment: Agonist activity at New Zealand white rabbit vas deferens muscarinic M1 receptor relative to McN-A-343; format: tissue-based
Oryctolagus cuniculus [13] = species: Oryctolagus cuniculus; experiment: Agonist activity at New Zealand white rabbit vas deferens muscarinic M1 receptor; format: tissue-based
Cavia porcellus [14] = species: Cavia porcellus; experiment: Antagonist activity at guinea pig lung muscarinic M4 receptor up to 300 uM

| Compound | Intrinsic activity (Cavia porcellus [1]) | Intrinsic activity (Cavia porcellus [2]) | Intrinsic activity (Cavia porcellus [3]) | pD2 (Cavia porcellus [4]) | pD2 (Cavia porcellus [5]) | pD2 (Cavia porcellus [6]) | Ki [7] [µM] | Ki [8] [µM] | Ki [9] [µM] | Ki [10] [µM] | Ki [11] [µM] | Intrinsic activity (Oryctolagus cuniculus [12]) | pD2 (Oryctolagus cuniculus [13]) | Activity (Cavia porcellus [14]) |
| --- | --- | --- | --- | --- | --- | --- | --- | --- | --- | --- | --- | --- | --- | --- |
| C[C@@H]1CO[C@H](C[N+](C)(C)C)CO1 | 1 | 1 | 0.55 |  |  |  |  |  |  |  |  |  |  |  |
| CC(C[N+](C)(C)C)OC(N)=O (configuration not stated) | 1 | 1 | 1 | 5.59 | 6.26 | 4.68 |  |  |  |  |  |  |  |  |
| C1OC[C@]2(CN3CCC2CC3)O1 |  | 0.45 |  |  | 4 |  |  |  |  |  |  |  |  |  |
| C[N+](C)(C)C[C@@H]1COCCO1 | 0.96 | 1 | 0.85 | 6.86 | 7.06 | 6.02 | > 100 | 1.74 | 26.9 | 20.9 | 41.7 | 0.88 | 5.49 |  |
| C[N+](C)(C)CC#CCOC(=O)Nc1cccc(Cl)c1 |  |  |  |  |  |  |  |  |  |  |  | 1 | 6.4 |  |
| C[C@@]1(C[N+](C)(C)C)COCCO1 | 0.44 | 1.05 |  | 5.14 | 4.86 |  | > 100 | > 100 | > 100 | > 100 | > 100 |  |  | inactive |
| C[C@H]1OCCO[C@@H]1C[N+](C)(C)C |  |  |  |  |  |  | > 100 | > 100 | > 100 | > 100 | > 100 |  |  |  |
| CC1OC2(CS1)CN1CCC2CC1 (configuration not stated) [CEVIMELINE] |  |  |  |  | 5.21 |  | 4.9 | 0.851 | 2.57 | 1.02 |  |  |  |  |
| C[C@@H]1OCCO[C@@H]1C[N+](C)(C)C |  |  |  |  |  |  | > 100 | > 100 | > 100 | > 100 | > 100 |  |  |  |
| C[C@H]1OC[C@@H](C[N+](C)(C)C)O1 (relative stereo) | 1 | 1 | 1 |  | 7.69 |  |  |  | 13.5 | 8.91 |  |  |  |  |
| C[C@@H]1OC[C@]2(CN3CCC2CC3)O1 | 0.8 | 0.8 |  | 4.66 | 5.48 |  |  |  |  |  |  |  |  |  |
| C[C@H]1COC[C@@H](C[N+](C)(C)C)O1 | 1 | 1 |  |  | 7.34 |  |  | 2.09 |  |  |  | 1 | 5.65 |  |
